{"source": "patent US6365605B1", "about": "“Substituted hydrochromenopyrroles” (Les Laboratoires Servier, priority 1997, dated 2002)", "biological_target": "T1, D3 receptors (expressed in CHO cells) (Homo sapiens, UniProt P35462)", "T1 construct": "expressed in transfected cells", "T1 sequence (P35462 whole entry)": "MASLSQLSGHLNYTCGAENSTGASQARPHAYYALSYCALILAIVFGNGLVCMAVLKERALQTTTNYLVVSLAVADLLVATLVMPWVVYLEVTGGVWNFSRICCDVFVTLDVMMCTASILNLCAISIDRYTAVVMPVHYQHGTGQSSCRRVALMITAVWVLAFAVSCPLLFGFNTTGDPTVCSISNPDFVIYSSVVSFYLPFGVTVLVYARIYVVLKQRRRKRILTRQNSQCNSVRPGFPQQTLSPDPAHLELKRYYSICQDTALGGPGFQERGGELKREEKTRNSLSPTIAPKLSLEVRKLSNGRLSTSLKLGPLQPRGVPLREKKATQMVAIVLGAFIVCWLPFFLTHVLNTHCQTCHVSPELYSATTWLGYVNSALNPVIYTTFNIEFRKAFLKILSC", "test": "In vitro measurement of the affinity to D2 and D3 receptors, [125I]-iodosulpiride radioligand, membrane preparations", "format": "binding", "conditions": "difference of pKi, D3 vs D2 receptors expressed in CHO cells", "procedure": "The affinity of the compounds of the invention to D2 and D3 receptors (expressed independently and in a stable manner in CHO cells) was determined with membrane preparations using [^125I]-iodosulpiride as radioligand (Sokoloff et al., quoted reference). The results are expressed as pKi."}
{"smiles": "CC(=O)Nc1ccc(CCN2CC3COc4ccc(C#N)cc4C3C2)cc1.Cl", "note": "(stereo not shown) [Example 4, (3aα,9bβ)-2-[2-(4-Acetylaminophenyl)ethyl]-8-cyano-1,2,3,3a,4,9b-hexahydrochromeno[3,4-c]pyrrole hydrochloride]", "values": [{"measurement": "selectivity for D3 receptors compared with D2 receptors", "result": "> 1.5", "unit": "log"}]}
